Values quoted from earlier work, collected in patent US4533546A, “Antiinflammatory analgesic gelled ointments” (Lederle (Japan), Ltd., priority 1983, dated 1985).

How the values were obtained:
digestive organs = settings: oral, background statement in words
[1] = in water and various pharmaceutically acceptable solvents; in words

SMILES | side-effects (digestive organs) | solubility [1]
CC(C)Cc1ccc(CC(=O)O)cc1 [ibufenac] | side-effects on the digestive organs | 
CC(C)Cc1ccc(C(C)C(=O)O)cc1 (centres unmarked) [ibuprofen] | side-effects on the digestive organs | 
COc1ccc2c(c1)c(CC(=O)O)c(C)n2C(=O)c1ccc(Cl)cc1 [indomethacin] | side-effects on the digestive organs | 
O=C(O)Cc1ccc(-c2ccccc2)cc1 [4-biphenylylacetic acid] | side-effects on the digestive organs | insoluble or only sparingly soluble in water and various pharmaceutically acceptable solvents
